Read-outs that look alike come from different tables or passages of the source.
Tests used:
Experiment in all cases: KinomeScan kinase panel, single concentration 10 µM
Format in all cases: binding
[1] = biological target: T1, KinomeScan kinase panel (Homo sapiens, UniProt O94804); conditions: LOK, 10 µM
T1 construct: purchased DiscoveRx (KinomeScan)

[2] = biological target: T2, KinomeScan kinase panel (Homo sapiens, UniProt P00519, H396P); conditions: 10 µM, read-out: score (%)
T2 construct: purchased DiscoveRx (KinomeScan)

[3] = biological target: T3, KinomeScan kinase panel (Homo sapiens, UniProt P36888, N841I); conditions: FLT3(N841I), 10 µM; read-out: score (%)
T3 construct: purchased DiscoveRx (KinomeScan)
T3 sequence (P36888 27-993 N841I): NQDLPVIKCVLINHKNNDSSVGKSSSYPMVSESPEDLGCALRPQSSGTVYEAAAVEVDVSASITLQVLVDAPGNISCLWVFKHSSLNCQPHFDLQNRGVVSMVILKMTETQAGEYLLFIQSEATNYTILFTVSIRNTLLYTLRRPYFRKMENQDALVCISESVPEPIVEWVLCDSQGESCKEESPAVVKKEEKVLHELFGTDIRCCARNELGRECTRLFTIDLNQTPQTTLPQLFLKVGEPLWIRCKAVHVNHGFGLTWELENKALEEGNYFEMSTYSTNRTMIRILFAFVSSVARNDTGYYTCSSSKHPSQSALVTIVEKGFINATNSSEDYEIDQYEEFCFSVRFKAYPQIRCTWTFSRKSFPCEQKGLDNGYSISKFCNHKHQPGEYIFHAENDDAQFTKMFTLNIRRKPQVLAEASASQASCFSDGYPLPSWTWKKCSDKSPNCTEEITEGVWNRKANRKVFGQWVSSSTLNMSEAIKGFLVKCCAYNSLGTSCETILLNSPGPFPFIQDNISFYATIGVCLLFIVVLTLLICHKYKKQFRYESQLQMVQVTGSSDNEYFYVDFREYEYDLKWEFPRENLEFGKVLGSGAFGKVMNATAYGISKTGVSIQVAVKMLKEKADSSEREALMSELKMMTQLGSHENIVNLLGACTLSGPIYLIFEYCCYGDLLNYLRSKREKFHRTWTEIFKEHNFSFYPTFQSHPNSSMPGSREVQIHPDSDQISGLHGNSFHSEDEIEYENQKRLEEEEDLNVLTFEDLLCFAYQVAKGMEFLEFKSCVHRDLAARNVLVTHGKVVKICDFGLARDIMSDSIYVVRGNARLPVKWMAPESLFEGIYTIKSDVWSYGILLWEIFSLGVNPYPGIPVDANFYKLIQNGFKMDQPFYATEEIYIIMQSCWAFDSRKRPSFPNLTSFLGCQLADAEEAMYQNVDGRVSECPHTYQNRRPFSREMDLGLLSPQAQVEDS

[4] = biological target: T4, KinomeScan kinase panel (Homo sapiens, UniProt P53778); conditions: p38-gamma, 10 µM; read-out: score (%)
T4 construct: purchased DiscoveRx (KinomeScan)
T4 sequence (P53778 1-367): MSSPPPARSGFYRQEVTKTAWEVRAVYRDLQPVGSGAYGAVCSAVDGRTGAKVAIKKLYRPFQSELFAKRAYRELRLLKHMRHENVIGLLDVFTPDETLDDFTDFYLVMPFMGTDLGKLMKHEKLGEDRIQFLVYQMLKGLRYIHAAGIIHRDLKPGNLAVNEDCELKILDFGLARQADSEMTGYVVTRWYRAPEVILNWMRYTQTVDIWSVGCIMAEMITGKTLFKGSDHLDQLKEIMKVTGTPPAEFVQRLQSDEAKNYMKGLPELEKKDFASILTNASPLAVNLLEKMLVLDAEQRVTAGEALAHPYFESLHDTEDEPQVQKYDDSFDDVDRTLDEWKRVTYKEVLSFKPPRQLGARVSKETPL

[5] = biological target: T5, KinomeScan kinase panel (Homo sapiens, UniProt Q00526); conditions: CDK3, 10 µM
T5 construct: purchased DiscoveRx (KinomeScan)

[6] = biological target: T6, KinomeScan kinase panel (Homo sapiens, UniProt Q07002); conditions: PCTK3, 10 µM; read-out: score (%)
T6 construct: purchased DiscoveRx (KinomeScan)

[7] = biological target: T7, KinomeScan kinase panel (Homo sapiens, UniProt Q13555); conditions: CAMK2G, 10 µM; read-out: score (%)
T7 construct: purchased DiscoveRx (KinomeScan)

[8] = biological target: T8, KinomeScan kinase panel (Homo sapiens, UniProt Q13976); conditions: read-out: score (%)
T8 construct: purchased DiscoveRx (KinomeScan)
T8 sequence (Q13976 1-671): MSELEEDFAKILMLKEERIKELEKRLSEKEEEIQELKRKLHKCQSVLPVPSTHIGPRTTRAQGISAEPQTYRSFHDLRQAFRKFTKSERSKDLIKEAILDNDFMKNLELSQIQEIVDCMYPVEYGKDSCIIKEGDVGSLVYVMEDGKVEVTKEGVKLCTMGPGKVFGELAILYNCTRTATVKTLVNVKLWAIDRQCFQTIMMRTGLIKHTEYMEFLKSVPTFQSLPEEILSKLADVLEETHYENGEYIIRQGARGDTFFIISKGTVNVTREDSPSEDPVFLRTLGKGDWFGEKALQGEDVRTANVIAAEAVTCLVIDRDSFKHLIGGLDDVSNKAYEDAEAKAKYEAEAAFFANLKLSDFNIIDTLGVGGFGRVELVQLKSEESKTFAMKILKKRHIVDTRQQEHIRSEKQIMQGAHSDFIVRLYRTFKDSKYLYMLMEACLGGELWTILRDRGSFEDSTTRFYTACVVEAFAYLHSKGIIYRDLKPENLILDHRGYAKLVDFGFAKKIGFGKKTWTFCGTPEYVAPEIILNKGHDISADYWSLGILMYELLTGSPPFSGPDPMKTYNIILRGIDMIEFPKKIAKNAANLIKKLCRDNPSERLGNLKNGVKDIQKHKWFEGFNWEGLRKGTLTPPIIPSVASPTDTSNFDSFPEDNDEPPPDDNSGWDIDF

[9] = biological target: T9, KinomeScan kinase panel (Homo sapiens, UniProt Q6DT37); conditions: DMPK2, 10 µM; read-out: score (%)
T9 construct: purchased DiscoveRx (KinomeScan)

[10] = biological target: T10, KinomeScan kinase panel (Homo sapiens, UniProt Q96Q40); conditions: PFTAIRE2, 10 µM; read-out: score (%)
T10 construct: purchased DiscoveRx (KinomeScan)

[11] = biological target: T11, KinomeScan kinase panel (Homo sapiens, UniProt Q96RR4); conditions: CAMKK2, 10 µM; read-out: score (%)
T11 construct: purchased DiscoveRx (KinomeScan)

[12] = biological target: T12, KinomeScan kinase panel (Homo sapiens, UniProt Q9P1W9); conditions: PIM2, 10 µM; read-out: score (%)
T12 construct: purchased DiscoveRx (KinomeScan)

[13] = biological target: T13, KinomeScan kinase panel (Homo sapiens, UniProt Q9UK32); conditions: 10 µM
T13 construct: purchased DiscoveRx (KinomeScan)

T1 sequence (O94804 whole entry): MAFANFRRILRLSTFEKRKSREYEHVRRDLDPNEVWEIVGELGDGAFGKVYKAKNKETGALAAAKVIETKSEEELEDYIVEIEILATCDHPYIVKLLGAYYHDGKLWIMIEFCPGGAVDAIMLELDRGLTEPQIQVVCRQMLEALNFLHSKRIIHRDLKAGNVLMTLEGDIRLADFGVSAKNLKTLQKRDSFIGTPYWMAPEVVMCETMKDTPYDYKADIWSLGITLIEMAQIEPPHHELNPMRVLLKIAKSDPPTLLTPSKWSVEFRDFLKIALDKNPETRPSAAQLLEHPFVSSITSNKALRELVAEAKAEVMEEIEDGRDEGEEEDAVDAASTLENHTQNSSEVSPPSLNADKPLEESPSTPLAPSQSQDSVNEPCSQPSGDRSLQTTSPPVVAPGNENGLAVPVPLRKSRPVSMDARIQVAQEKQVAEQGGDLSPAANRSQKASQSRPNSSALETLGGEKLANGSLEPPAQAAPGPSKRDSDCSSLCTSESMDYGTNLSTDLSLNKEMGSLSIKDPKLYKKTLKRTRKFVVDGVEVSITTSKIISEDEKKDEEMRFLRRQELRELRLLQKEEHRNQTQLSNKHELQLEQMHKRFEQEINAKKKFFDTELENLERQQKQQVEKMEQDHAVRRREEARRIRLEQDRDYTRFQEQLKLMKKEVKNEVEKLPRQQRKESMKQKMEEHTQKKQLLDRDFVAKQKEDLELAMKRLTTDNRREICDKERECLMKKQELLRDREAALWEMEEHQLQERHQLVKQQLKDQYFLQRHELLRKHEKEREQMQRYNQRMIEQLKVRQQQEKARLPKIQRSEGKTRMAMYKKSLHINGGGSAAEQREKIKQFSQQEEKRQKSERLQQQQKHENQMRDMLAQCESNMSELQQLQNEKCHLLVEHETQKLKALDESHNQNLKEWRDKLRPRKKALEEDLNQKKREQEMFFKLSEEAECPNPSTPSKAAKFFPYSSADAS
T7 sequence (Q13555 whole entry): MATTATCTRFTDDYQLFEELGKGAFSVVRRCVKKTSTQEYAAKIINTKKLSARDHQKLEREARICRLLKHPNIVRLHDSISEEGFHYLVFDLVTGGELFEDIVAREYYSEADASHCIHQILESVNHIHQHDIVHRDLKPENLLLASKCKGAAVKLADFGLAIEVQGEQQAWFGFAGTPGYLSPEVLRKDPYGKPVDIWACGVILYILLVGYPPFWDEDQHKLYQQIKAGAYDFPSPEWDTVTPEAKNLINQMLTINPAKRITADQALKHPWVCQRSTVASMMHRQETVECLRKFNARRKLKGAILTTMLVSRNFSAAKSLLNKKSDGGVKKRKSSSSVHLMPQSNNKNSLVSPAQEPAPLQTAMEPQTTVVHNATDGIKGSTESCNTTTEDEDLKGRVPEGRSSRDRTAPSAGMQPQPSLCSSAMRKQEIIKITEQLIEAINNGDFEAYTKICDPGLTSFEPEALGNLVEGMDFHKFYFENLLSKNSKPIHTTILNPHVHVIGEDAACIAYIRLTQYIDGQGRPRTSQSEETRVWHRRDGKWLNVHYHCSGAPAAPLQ
T6 sequence (Q07002 whole entry): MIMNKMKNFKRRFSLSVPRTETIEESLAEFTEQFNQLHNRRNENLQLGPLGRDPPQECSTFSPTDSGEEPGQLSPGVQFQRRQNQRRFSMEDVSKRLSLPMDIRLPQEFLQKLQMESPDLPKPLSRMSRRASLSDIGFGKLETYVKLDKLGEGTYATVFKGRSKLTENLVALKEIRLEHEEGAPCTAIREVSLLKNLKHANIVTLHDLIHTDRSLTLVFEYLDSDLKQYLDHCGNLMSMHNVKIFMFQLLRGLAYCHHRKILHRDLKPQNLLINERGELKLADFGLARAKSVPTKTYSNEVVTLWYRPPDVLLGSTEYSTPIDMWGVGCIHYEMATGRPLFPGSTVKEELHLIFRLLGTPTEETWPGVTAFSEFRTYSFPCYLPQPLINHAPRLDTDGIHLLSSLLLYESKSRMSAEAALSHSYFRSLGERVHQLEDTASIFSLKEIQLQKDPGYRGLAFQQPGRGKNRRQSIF
T12 sequence (Q9P1W9 whole entry): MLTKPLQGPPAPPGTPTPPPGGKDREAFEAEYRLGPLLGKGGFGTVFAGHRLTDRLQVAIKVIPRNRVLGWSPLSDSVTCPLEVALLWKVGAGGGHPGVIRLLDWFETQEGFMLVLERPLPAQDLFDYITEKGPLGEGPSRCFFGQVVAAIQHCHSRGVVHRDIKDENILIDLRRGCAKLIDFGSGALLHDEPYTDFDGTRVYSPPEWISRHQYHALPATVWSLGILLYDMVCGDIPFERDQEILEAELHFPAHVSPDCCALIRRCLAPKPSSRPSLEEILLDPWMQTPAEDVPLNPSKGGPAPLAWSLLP
T11 sequence (Q96RR4 whole entry): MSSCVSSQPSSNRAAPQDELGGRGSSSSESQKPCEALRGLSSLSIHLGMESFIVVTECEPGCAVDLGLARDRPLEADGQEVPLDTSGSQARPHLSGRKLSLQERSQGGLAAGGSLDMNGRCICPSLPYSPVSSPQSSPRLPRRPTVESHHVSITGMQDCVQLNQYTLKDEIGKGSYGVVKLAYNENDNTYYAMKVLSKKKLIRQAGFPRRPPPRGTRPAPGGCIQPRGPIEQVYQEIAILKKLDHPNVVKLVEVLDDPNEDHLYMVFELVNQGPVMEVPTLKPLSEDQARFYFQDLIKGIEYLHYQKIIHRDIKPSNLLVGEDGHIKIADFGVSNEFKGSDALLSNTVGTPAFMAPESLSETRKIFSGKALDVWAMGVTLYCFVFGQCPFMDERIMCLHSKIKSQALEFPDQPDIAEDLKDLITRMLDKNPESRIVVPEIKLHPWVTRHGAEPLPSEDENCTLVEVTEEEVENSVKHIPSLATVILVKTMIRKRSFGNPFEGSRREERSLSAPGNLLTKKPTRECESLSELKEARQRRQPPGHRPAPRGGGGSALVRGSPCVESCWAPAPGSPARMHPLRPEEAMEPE
T9 sequence (Q6DT37 whole entry): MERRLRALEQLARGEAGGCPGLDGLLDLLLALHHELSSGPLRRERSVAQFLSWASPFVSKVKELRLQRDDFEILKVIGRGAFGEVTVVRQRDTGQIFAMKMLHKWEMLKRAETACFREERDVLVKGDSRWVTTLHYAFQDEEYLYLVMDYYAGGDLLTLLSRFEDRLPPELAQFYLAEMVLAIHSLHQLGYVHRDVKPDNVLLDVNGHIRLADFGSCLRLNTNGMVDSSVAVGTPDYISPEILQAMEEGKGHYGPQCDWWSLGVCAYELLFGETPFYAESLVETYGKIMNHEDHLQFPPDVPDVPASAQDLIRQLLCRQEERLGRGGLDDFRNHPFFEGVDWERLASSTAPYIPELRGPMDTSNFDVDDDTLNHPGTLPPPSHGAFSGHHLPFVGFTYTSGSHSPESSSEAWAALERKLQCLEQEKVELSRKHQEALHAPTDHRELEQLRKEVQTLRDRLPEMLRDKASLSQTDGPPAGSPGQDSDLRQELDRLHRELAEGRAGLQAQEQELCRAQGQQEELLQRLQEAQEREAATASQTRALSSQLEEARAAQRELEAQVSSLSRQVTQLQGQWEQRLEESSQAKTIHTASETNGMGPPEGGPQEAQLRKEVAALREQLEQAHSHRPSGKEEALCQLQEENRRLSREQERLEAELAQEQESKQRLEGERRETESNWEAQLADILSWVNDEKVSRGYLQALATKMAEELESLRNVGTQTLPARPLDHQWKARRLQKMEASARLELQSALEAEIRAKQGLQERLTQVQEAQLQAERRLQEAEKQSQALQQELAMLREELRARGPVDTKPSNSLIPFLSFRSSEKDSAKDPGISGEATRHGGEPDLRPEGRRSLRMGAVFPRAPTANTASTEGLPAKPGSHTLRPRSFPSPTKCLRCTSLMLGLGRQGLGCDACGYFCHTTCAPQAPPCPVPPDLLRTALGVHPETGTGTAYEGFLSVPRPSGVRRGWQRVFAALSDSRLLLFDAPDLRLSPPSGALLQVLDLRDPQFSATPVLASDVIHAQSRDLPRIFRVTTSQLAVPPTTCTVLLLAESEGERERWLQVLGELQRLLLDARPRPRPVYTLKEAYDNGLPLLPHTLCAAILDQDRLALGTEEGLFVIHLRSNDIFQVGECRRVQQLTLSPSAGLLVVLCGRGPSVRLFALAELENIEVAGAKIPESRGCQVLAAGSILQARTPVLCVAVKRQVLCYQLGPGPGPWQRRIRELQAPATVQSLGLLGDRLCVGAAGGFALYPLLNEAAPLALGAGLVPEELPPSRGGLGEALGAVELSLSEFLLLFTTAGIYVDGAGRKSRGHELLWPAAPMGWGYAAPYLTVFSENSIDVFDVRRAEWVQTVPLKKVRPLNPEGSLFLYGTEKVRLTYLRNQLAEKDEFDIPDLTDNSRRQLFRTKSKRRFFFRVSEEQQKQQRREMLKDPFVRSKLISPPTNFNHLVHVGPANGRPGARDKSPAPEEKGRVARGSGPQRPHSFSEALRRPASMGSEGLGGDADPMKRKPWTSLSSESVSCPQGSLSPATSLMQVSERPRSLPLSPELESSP
T10 sequence (Q96Q40 whole entry): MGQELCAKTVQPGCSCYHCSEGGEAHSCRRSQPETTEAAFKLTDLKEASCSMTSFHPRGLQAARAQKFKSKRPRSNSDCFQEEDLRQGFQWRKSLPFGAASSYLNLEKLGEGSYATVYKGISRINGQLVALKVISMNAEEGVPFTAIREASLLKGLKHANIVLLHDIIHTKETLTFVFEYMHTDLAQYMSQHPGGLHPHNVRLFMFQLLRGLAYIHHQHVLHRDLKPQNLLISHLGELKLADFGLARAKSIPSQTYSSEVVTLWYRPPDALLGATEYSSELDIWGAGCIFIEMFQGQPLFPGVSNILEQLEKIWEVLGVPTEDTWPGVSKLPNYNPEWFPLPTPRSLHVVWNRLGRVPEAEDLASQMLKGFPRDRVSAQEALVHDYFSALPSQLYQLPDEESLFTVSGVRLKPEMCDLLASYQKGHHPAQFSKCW

Row | SMILES | score (%) [1] | remaining binding at 10 µM ([2]; ABL1(H396P)) | remaining binding at 10 µM [3] | remaining binding at 10 µM [4] | score (%) [5] | remaining binding at 10 µM [6] | remaining binding at 10 µM [7] | remaining binding at 10 µM ([8]; PRKG1, 10 µM) | remaining binding at 10 µM [9] | remaining binding at 10 µM [10] | remaining binding at 10 µM [11] | remaining binding at 10 µM [12] | further results
1 | CCN1CCN(Cc2ccc(NC(=O)c3ccc(C)c(NC(=O)c4cncc(-c5cccs5)c4)c3)cc2C(F)(F)F)CC1 [ALW-II-41-27] | 0.05% | 0.5% | 0.75% | 3.6% | nb (Hits values higher than 30% were considered negative (no binding: nb)) | > 30% | > 30% | > 30% | > 30% | > 30% | > 30% | 22% | score (%) ([13]; kinase RPS6KA6(Kin.Dom.1-N-terminal)): nb (Hits values higher than 30% were considered negative (no binding: nb)); score (%) ([13]; kinase RPS6KA6(Kin.Dom.2-C-terminal)): nb (Hits values higher than 30% were considered negative (no binding: nb))
2 | CCN1CCN(Cc2ccc(NC(=O)c3ccc(C)c(/C=C/c4cnc5[nH]ccc5c4Cl)c3)cc2C(F)(F)F)CC1 [HG-6-63-01, (E)-3-(2-(4-chloro-1H-pyrrolo[2,3-b]pyridin-5-yl)vinyl)-N-(4-((4-ethylpiperazin-1-yl)methyl)-3-(trifluoromethyl)phenyl)-4-methylbenzamide] | 0% | 0.2% | 0.15% | 13% | nb (Hits values higher than 30% were considered negative (no binding: nb)) | > 30% | > 30% | > 30% | 14% | > 30% | > 30% | > 30% | score (%) ([13]; RPS6KA6(Kin.Dom.1)): nb (Hits values higher than 30% were considered negative (no binding: nb)); score (%) ([13]; RPS6KA6(Kin.Dom.2)): nb (Hits values higher than 30% were considered negative (no binding: nb))
3 | CCN1CCN(Cc2ccc(NC(=O)c3ccc(C)c(C#Cc4cccnc4)c3)cc2C(F)(F)F)CC1 [XMD15-44] | 0% | – | 0% | 2.7% | 24% | 6.2% | > 30% | – | > 30% | 6.4% | 7.8% | 100% | remaining binding at 10 µM ([2]; ABL1(H396P)-nonphosphorylated): 0%; remaining binding at 10 µM ([2]; ABL1(H396P)-phosphorylated): 0%; remaining binding at 10 µM ([8]; kinase PRKG1, 10 µM): 100%; score (%) ([13]; kinase RSK4(Kin.Dom.1-N-terminal)): 47%; score (%) ([13]; kinase RSK4(Kin.Dom.2-C-terminal)): 6.8%

Source: publication PMC4457528, “Identification of Novel Small Molecule Inhibitors of Oncogenic RET Kinase” (PLoS ONE, 2015)
